From ChEMBL document CHEMBL1201862, “PubChem BioAssay data set” (2004) come the findings set out here.

What all share (assay): NCI tumour cell line growth inhibition, 48 h
Test [1] relates to OVCAR-4.
Test [2] deals with HOP-62.
For test [3], the system named is UACC-62.
Test [4] deals with SF-295.
The test system of test [5] is DU-145.
In test [6] the test system is Malme-3M.
The subject of test [7] is NCI-H460.
In test [8] the test system is HCT-116.
In test [9] the test system is 786-0.
Test [10] concerns SR.
Test [11] deals with HT-29.
For test [12], the system named is T47D.
Test [13] concerns UO-31.
The subject of test [14] is A549.
Test [15] has as its system NCI-H23.
Test [16] concerns CAKI-1.
Test [17] relates to TK-10.
The test system of test [18] is BT-549.

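In this assay, cells in 96-well plates receive the compound at five concentrations for 48 hours. Endpoints are linearly interpolated between the surrounding concentrations. At the GI50, growth is halved.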 Activity calls are given as the source filed them. No stated cut-off is given here; in the data, active = GI50 up to about 1.1 µM and inactive = higher.

In the case of `O=C(O)c1ccc(CI)cc1`, the GI50 was 14.3 µM (inactive) in test [1]; 20.3 µM (inactive) in [2]; 10.8 µM (inactive) in test [3]; 7.82 µM (inactive) in test [4]; 18.4 µM (inactive) in test [5]; 10.6 µM (inactive) in [6]. The GI50 in test [7] was 15.6 µM (inactive); in test [8], 14.5 µM (inactive); in [9], 3.24 µM (inactive); in test [10] it was 21.6 µM (inactive); in [11] it was 15.1 µM (inactive); in test [12] it was 25 µM (inactive). Further, the GI50 in test [13] is 18 µM (inactive); in test [14], 17.6 µM (inactive); in test [15], 12.7 µM (inactive); in test [16] it was 13.7 µM (inactive).
Regarding `C[N+](C)(C)C1(C(=O)[O-])CC1`, the GI50 in [1], in test [2], in test [17], in test [4], in test [5] and in test [6] was > 100 µM (inactive) each time. Besides, the GI50 is > 100 µM (inactive) in test [7]; > 100 µM (inactive) in [8]; > 100 µM (inactive) in test [9]; > 100 µM (inactive) in test [10]; > 100 µM (inactive) in test [11]; 72.1 µM (inactive) in [12]. Further, the GI50 in [14] and in test [15] was > 100 µM (inactive) in each case.
With `CC1CCC(C(=O)O)(C(Br)C(=O)O)CC1` (stereo not given), the GI50 in test [1], in test [2], in [3], in test [17], in test [4] and in test [5] was > 100 µM (inactive) in each case. The GI50 in test [7], in test [8], in test [9], in [18], in test [10] and in test [11] was > 100 µM (inactive) in each case. Besides, the GI50 in test [13], in [14], in test [15] and in test [16] was > 100 µM (inactive) throughout.
In the case of `O=C(COc1ccc(OCC(=O)N2C(=O)CN(c3ccc(Cl)cc3)C2=S)cc1)N1C(=O)CN(c2ccc(Cl)cc2)C1=S`, the GI50 was 25.9 µM (inactive) in test [1]; 16.5 µM (inactive) in test [3]; 24.4 µM (inactive) in test [17]; 29 µM (inactive) in test [4]; 43.2 µM (inactive) in test [5]; 41.2 µM (inactive) in test [6]. In addition, the GI50 in test [7] was 23.3 µM (inactive); in [8], 15.7 µM (inactive); in [9], 22.9 µM (inactive); in test [18], 31.5 µM (inactive); in test [11] it was 31.4 µM (inactive); in [13], 29 µM (inactive). The GI50 in test [14] is 21.5 µM (inactive); in [15], 32.5 µM (inactive); in [16] it was 19.6 µM (inactive).
For `CCc1c(O)nc(Nc2nc3ccccc3[nH]2)[nH]c1=O`, the GI50 in test [1], in test [2], in test [3], in test [17], in test [4] and in [5] was > 100 µM (inactive) each time. Besides, the GI50 in test [6] is > 100 µM (inactive); in test [7] it was > 100 µM (inactive); in test [8], > 100 µM (inactive); in test [9], > 100 µM (inactive); in [18] it was > 100 µM (inactive); in test [10] it was 92.9 µM (inactive). In addition, the GI50 in [11], in test [13], in test [14] and in test [15] was > 100 µM (inactive) in each case.
In the case of `CC(C)(CO)NC(=O)c1cccs1`, the GI50 in [1], in test [2], in test [3], in [17], in test [4] and in test [5] was > 100 µM (inactive) each time. In addition, the GI50 in test [6], in test [7], in test [8], in test [9], in [10] and in test [11] was > 100 µM (inactive) each time. The GI50 in [12], in [13], in test [14], in test [15] and in test [16] was > 100 µM (inactive) each time.
On to `C#CC(=O)OCC#CCOC(=O)C#C`, for which the GI50 in [2] was 21.6 µM (inactive); in test [3], 22.7 µM (inactive); in test [17] it was 16.3 µM (inactive); in [4], > 100 µM (inactive); in test [5], 26.8 µM (inactive); in test [6] it was 19.1 µM (inactive). In addition, the GI50 in [7] is > 100 µM (inactive); in test [8], 15.7 µM (inactive); in test [9] it was 15 µM (inactive); in test [18] it was 18.6 µM (inactive); in test [11], 23 µM (inactive); in test [12] it was 23.7 µM (inactive). The GI50 in [13] is 9.14 µM (inactive); in [14] it was 27.9 µM (inactive); in test [15], 23.3 µM (inactive); in test [16], 19.8 µM (inactive).
For `S=C=Nc1ccc(CSc2nc3ccccc3[nH]2)cc1`, the GI50 in test [1] was 17.3 µM (inactive); in test [2], 17.5 µM (inactive); in test [3], 15.8 µM (inactive); in [17], 20.1 µM (inactive); in test [4], 17.3 µM (inactive); in [5], 16.1 µM (inactive). The GI50 in test [6] is 17.6 µM (inactive); in test [7] it was 20.8 µM (inactive); in test [8] it was 24 µM (inactive); in test [9], 19.9 µM (inactive); in test [10], 20.7 µM (inactive); in [11] it was 18.4 µM (inactive). For the same compound, the GI50 in test [12] is 15.2 µM (inactive); in test [13], 19.5 µM (inactive); in test [14], 17.1 µM (inactive); in test [15], 17.6 µM (inactive); in [16] it was 17.7 µM (inactive).
As to `Cc1ccc(S(=O)(=O)NC(CCC(=O)NN)C(=O)NN)cc1` (stereo not given), the GI50 in [1] is 16.5 µM (inactive); in test [2], > 100 µM (inactive); in [3], > 100 µM (inactive); in test [17], > 100 µM (inactive); in test [4] it was > 100 µM (inactive); in [6] it was > 100 µM (inactive). In addition, the GI50 is 0.067 µM (active) in test [7]; > 100 µM (inactive) in [8]; > 100 µM (inactive) in [9]; > 100 µM (inactive) in test [18]; > 100 µM (inactive) in test [10]; > 100 µM (inactive) in [11]. Further, the GI50 in test [12], in test [13], in [14], in test [15] and in test [16] was > 100 µM (inactive) throughout.
With `O=C(CSCC(=O)N/N=C\c1ccc(O)c(O)c1O)N/N=C\c1ccc(O)c(O)c1O`, the GI50 was 2.48 µM (inactive) in [1]; 15.6 µM (inactive) in test [3]; 24 µM (inactive) in test [17]; 2.24 µM (inactive) in test [4]; 14.1 µM (inactive) in test [5]; 22.6 µM (inactive) in test [6]. Further, the GI50 is 23.3 µM (inactive) in [7]; 3.37 µM (inactive) in [8]; 2.01 µM (inactive) in test [9]; 2.33 µM (inactive) in [10]; 11.6 µM (inactive) in test [11]; 18.7 µM (inactive) in test [12]. The GI50 in [13] was 13.7 µM (inactive); in [14], 23.9 µM (inactive); in test [15] it was 1.69 µM (inactive); in test [16] it was 16.7 µM (inactive).
Take `[O-][n+]1onc2c1/C(=N/O)CCC2`: the GI50 in [1], in test [2], in test [3], in test [17], in test [4] and in [5] was > 100 µM (inactive) in each case. Further, the GI50 in [6], in test [7], in test [8], in test [9], in [10] and in [11] was > 100 µM (inactive) throughout. Moreover, the GI50 in test [12], in test [13], in test [14], in test [15] and in [16] was > 100 µM (inactive) in each case.
As to `O=C(/N=C1\SCCN1C(=O)C(C(F)(F)F)C(F)(F)F)C(C(F)(F)F)C(F)(F)F`, the GI50 in [1], in test [2], in test [17], in test [4], in [6] and in test [7] was > 100 µM (inactive) each time. Besides, the GI50 in test [8], in test [9], in test [10], in test [11], in test [13] and in test [14] was > 100 µM (inactive) in each case. For the same compound, the GI50 in test [15] and in test [16] was > 100 µM (inactive) each time.
In the case of `CCSc1[nH]c(Nc2nc(-c3ccccc3)n(-c3ccccc3)n2)c(C(N)=O)c1C(N)=O`, the GI50 in [1] was 5.28 µM (inactive); in test [2] it was > 10 µM (inactive); in [3], > 10 µM (inactive); in test [17] it was > 10 µM (inactive); in test [4], 9.62 µM (inactive); in test [5] it was > 10 µM (inactive). For the same compound, the GI50 in test [6], in test [9], in test [10], in test [11], in [12] and in test [14] was > 10 µM (inactive) in each case. Also, the GI50 in test [15] and in [16] was > 10 µM (inactive) each time.
